{
  "source": "patent US9000189B2",
  "about": "“Biphenyl-substituted spirocyclic ketoenols” (Bayer CropScience AG, priority 2006, dated 2015)",
  "key": {"[1]": {"system": "green peach aphid (Myzus persicae)", "assay": "Example 3: Myzus test (MYZUPE spray treatment)", "assay_type": "in vivo", "settings": "144 h, application rate 500 g/ha, after 6 d, read-out: efficacy (effect in %, aphids killed)"}, "[2]": {"system": "green peach aphid (Myzus persicae)", "assay": "Example 13: activity boost through ammonium/phosphonium salts in combination with penetrants, Myzus persicae test", "assay_type": "in vivo", "settings": "for Kill (%) after 6 d +RME 1000 pm: +RME 1000 pm (rapeseed oil methyl ester 500 EW); for Kill (%) after 6 d: no additive, bell pepper plants sprayed to runoff", "description": "Activity Boost Through Ammonium/Phosphonium Salts in Combination with Penetrants\n(§1) Solvent: 7 parts by weight of dimethylformamide\n(§2) Emulsifier: 2 parts by weight of alkylaryl polyglycol ether\n(§3) For application with ammonium salts or phosphonium salts and penetration promoters (rapeseed oil methyl ester 500 EW) these are in each case added in a concentration of 1000 ppm to the spray liquor.\nBell pepper plants (Capsicum annuum) heavily infested by the green peach aphid (Myzus persicae) are sprayed to runoff point with the preparation of active compound at the desired concentration.\n(§4) After the desired period of time, the kill in % is determined."}, "[3]": {"system": "cotton aphid (Aphis gossypii)", "assay": "Example 14: Aphis gossypii test (spray to runoff, with ammonium salts and penetrants)", "assay_type": "in vivo", "settings": "for Kill (%) after 6 d +AS + RME 1000 ppm each: + AS and RME 1000 ppm each; for Kill (%) after 6 d +AS 1000 ppm: + ammonium sulphate 1000 ppm; for Kill (%) after 6 d +RME 1000 pm: + rapeseed oil methyl ester; for Kill (%) after 6 d: active compound alone", "description": "as §1, §2, §3\nCotton plants (Gossypium hirsutum) which are heavily infested by the cotton aphid (Aphis gossypii) are sprayed to runoff point with the preparation of active compound at the desired concentration.\nas §4"}, "[4]": {"system": "larvae of the mustard beetle (Phaedon cochleariae)", "assay": "Example 1: Phaedon test (PHAECO spray treatment)", "settings": "168 h, read-out: efficacy (effect in %, beetle larvae killed)"}, "[5]": {"assay": "Example A: penetration of active compounds through enzymatically isolated cuticles of apple leaves", "assay_type": "in vitro ADME, apple trees of the Golden Delicious variety", "settings": "500 ppm in DMF/emulsifier W 7:1 (w/w), 20° C., 60% rh", "description": "Boosting of the penetration into the plant by ammonium salts or phosphonium salts, and synergistic boosting of penetration into the plants by ammonium/phosphonium salts in combination with penetration promoters\nThis test measured the penetration of active compounds through enzymatically isolated cuticles of apple leaves.\nThe leaves used were cut in the fully developed state from apple trees of the Golden Delicious variety. The cuticles were isolated as follows: • first of all, leaf discs labelled on the underside with dye and formed by punching were filled by means of vacuum infiltration with a pectinase solution (0.2% to 2% strength) buffered to a pH of between 3 and 4, • sodium azide was then added and • the leaf discs thus treated were left to stand until the original leaf structure broke down and the non-cellular cuticle underwent detachment.\nAfter that, only those cuticles from the top leaf sides that were free from stomata and hairs were used. They were washed a number of times in alternation with water and a buffer solution of pH 7. The clean cuticles obtained were, finally, applied to Teflon plaques, smoothed with a gentle jet of air, and dried.\nIn the next step the cuticular membranes obtained in this way were placed in stainless steel diffusion cells (=transport chambers) for the purpose of membrane transport investigations. […]\nThe diffusion cells were filled with a 30% strength ethylene glycol/water solution. Penetration was determined by applying 10 μl of the spray liquor of the composition below to the outer side of each of the cuticles. […]\nAfter the spray liquors had been applied, the water was evaporated and the chambers were inverted and placed into theromstated troughs, in which the temperature and humidity over the cuticles was adjustable by means of a gentle stream of air onto the cuticles, with the spray coating (20° C., 60% rh). At regular intervals, samples were taken using an autosampler, and the amount of active compound was determined using HPLC. […]"}, "[6]": {"assay": "Determination of the log P values by HPLC on a reversed-phase column (C18), acidic range", "assay_type": "physicochemical", "settings": "HPLC reversed-phase C18, 43° C., acidic range (pH 2.3)", "procedure": "Determination of the Log P Values\nThe log P values given in the table were determined in accordance with EEC Directive 79/831 Annex V.A8 by HPLC (High Performance Liquid Chromatography) on a reversed-phase column (C18). Temperature: 43° C.\nMobile phases for the determination in the acidic range (pH 2.3): 0.1% aqueous phosphoric acid, acetonitrile; linear gradient from 10% acetonitrile to 90% acetonitrile\nThe calibration was carried out using unbranched alkan-2-ones (having 3 to 16 carbon atoms) with known log P values (determination of the log P values by the retention times using linear interpolation between two successive alkanones).\nThe lambda max values were determined in the maxima of the chromatographic signals using the UV spectra from 200 nm to 400 nm."}, "[7]": {"system": "caterpillars of the army worm (Spodoptera frugiperda)", "assay": "Example 2: Spodoptera frugiperda test (SPODFR spray treatment)", "assay_type": "in vivo", "settings": "application rate 100 g/ha, after 7 d"}},
  "data": [
    {"smiles": "Cc1ccc(-c2ccc(F)cc2)cc1C1=C(O)C2(CCOCC2)NC1=O", "note": "[Example I-1-a-1]", "values": [
      {"measurement": "pest or weed control at 500 g/ha", "setting": "[1]", "result": "≥ 80", "unit": "%"},
      {"measurement": "Kill (%) after 6 d +AS 1000 ppm", "setting": "[2]; 0.8 ppm active compound", "result": 0, "unit": "%"},
      {"measurement": "Kill (%) after 6 d +AS + RME 1000 ppm each", "setting": "[2]; 0.8 ppm active compound", "result": 15, "unit": "%"},
      {"measurement": "Kill (%) after 6 d +RME 1000 pm", "setting": "[2]; 0.8 ppm active compound", "result": 0, "unit": "%"},
      {"measurement": "Kill (%) after 6 d", "setting": "[2]; 0.8 ppm active compound", "result": 0, "unit": "%"},
      {"measurement": "Kill (%) after 6 d +AS 1000 ppm", "setting": "[2]; 4 ppm active compound", "result": 15, "unit": "%"},
      {"measurement": "Kill (%) after 6 d +AS + RME 1000 ppm each", "setting": "[2]; 4 ppm active compound", "result": 99, "unit": "%"},
      {"measurement": "Kill (%) after 6 d +RME 1000 pm", "setting": "[2]; 4 ppm active compound", "result": 70, "unit": "%"},
      {"measurement": "Kill (%) after 6 d", "setting": "[2]; 4 ppm active compound", "result": 0, "unit": "%"},
      {"measurement": "Kill (%) after 6 d +AS + RME 1000 ppm each", "setting": "[3]; 4 ppm", "result": 60, "unit": "%"},
      {"measurement": "Kill (%) after 6 d +AS 1000 ppm", "setting": "[3]; 4 ppm", "result": 0, "unit": "%"},
      {"measurement": "Kill (%) after 6 d +RME 1000 pm", "setting": "[3]; 4 ppm", "result": 0, "unit": "%"},
      {"measurement": "Kill (%) after 6 d", "setting": "[3]; 4 ppm", "result": 0, "unit": "%"},
      {"measurement": "Kill (%) after 6 d +AS + RME 1000 ppm each", "setting": "[3]; 20 ppm", "result": 80, "unit": "%"},
      {"measurement": "Kill (%) after 6 d +AS 1000 ppm", "setting": "[3]; 20 ppm", "result": 5, "unit": "%"},
      {"measurement": "Kill (%) after 6 d +RME 1000 pm", "setting": "[3]; 20 ppm", "result": 15, "unit": "%"},
      {"measurement": "Kill (%) after 6 d", "setting": "[3]; 20 ppm", "result": 0, "unit": "%"},
      {"measurement": "pest or weed control at 500 g/ha", "setting": "[4]", "result": "≥ 80", "unit": "%"}
    ]},
    {"smiles": "COc1ccc(-c2ccc(C)c(C3=C(O)C4(CCOCC4)NC3=O)c2)cc1F", "note": "[Example I-1-a-2]", "values": [
      {"measurement": "pest or weed control at 500 g/ha", "setting": "[1]", "result": "≥ 80", "unit": "%"},
      {"measurement": "pest or weed control at 500 g/ha", "setting": "[4]", "result": "≥ 80", "unit": "%"}
    ]},
    {"smiles": "Cc1ccc(-c2ccc(F)cc2)c(C)c1C1=C(O)C2(CCOCC2)NC1=O", "note": "[Example I-1-a-4]", "values": [
      {"measurement": "Penetration after 24 h/% EC", "setting": "[5]; EC alone, average of 8 to 10 measurements", "result": 3, "unit": "%"},
      {"measurement": "Penetration after 24 h/% EC + RME (1 g/l) + AS (1 g/l)", "setting": "[5]; with rapeseed oil methyl ester 1 g/l and ammonium sulphate 1 g/l", "result": 30, "unit": "%"},
      {"measurement": "Penetration after 24 h/% EC + RME (1 g/l)", "setting": "[5]; with rapeseed oil methyl ester 1 g/l", "result": 8, "unit": "%"},
      {"measurement": "Kill (%) after 6 d +AS 1000 ppm", "setting": "[2]; 0.8 ppm active compound", "result": 0, "unit": "%"},
      {"measurement": "Kill (%) after 6 d +AS + RME 1000 ppm each", "setting": "[2]; 0.8 ppm active compound", "result": 5, "unit": "%"},
      {"measurement": "Kill (%) after 6 d +RME 1000 pm", "setting": "[2]; 0.8 ppm active compound", "result": 0, "unit": "%"},
      {"measurement": "Kill (%) after 6 d", "setting": "[2]; 0.8 ppm active compound", "result": 0, "unit": "%"},
      {"measurement": "Kill (%) after 6 d +AS 1000 ppm", "setting": "[2]; 4 ppm active compound", "result": 20, "unit": "%"},
      {"measurement": "Kill (%) after 6 d +AS + RME 1000 ppm each", "setting": "[2]; 4 ppm active compound", "result": 98, "unit": "%"},
      {"measurement": "Kill (%) after 6 d +RME 1000 pm", "setting": "[2]; 4 ppm active compound", "result": 5, "unit": "%"},
      {"measurement": "Kill (%) after 6 d", "setting": "[2]; 4 ppm active compound", "result": 15, "unit": "%"}
    ]},
    {"smiles": "O=C1NC2(CCOCC2)C(O)=C1c1cc(-c2ccc(F)c(C(F)(F)F)c2)ccc1Cl", "note": "[Example I-1-a-24]", "values": [
      {"measurement": "pest or weed control at 500 g/ha", "setting": "[1]", "result": "≥ 80", "unit": "%"},
      {"measurement": "pest or weed control at 500 g/ha", "setting": "[4]", "result": "≥ 80", "unit": "%"}
    ]},
    {"smiles": "CCC(=O)OC1=C(c2c(C)ccc(-c3ccc(F)cc3)c2C)C(=O)NC12CCOCC2", "note": "[Example I-1-b-1]", "values": [
      {"measurement": "pest or weed control at 500 g/ha", "setting": "[1]", "result": "≥ 80", "unit": "%"}
    ]},
    {"smiles": "CCOC(=O)OC1=C(c2c(C)ccc(-c3ccc(F)cc3)c2C)C(=O)NC12CCOCC2", "note": "[Example I-1-c-1]", "values": [
      {"measurement": "pest or weed control at 500 g/ha", "setting": "[1]", "result": "≥ 80", "unit": "%"}
    ]},
    {"smiles": "COC1=C(c2c(C)ccc(-c3ccc(F)cc3)c2C)C(=O)NC12CCOCC2", "note": "[Example I-1-f-1]", "values": [
      {"measurement": "pest or weed control at 500 g/ha", "setting": "[1]", "result": "≥ 80", "unit": "%"},
      {"measurement": "pest or weed control at 500 g/ha", "setting": "[4]", "result": "≥ 80", "unit": "%"}
    ]},
    {"smiles": "Cc1ccc(-c2ccc(F)cc2)cc1C1=C(O)C2(CCCC2)OC1=O", "note": "[Example I-2-a-1]", "values": [
      {"measurement": "chromatographic logP", "setting": "[6]; reversed-phase HPLC column (C18)", "result": 3.12},
      {"measurement": "pest or weed control at 500 g/ha", "setting": "[1]", "result": "≥ 80", "unit": "%"},
      {"measurement": "pest or weed control at 500 g/ha", "setting": "[4]", "result": "≥ 80", "unit": "%"}
    ]},
    {"smiles": "O=C1OC2(CCCC2)C(O)=C1c1cc(-c2ccc(F)c(F)c2)ccc1Cl", "note": "[Example I-2-a-2]", "values": [
      {"measurement": "logP", "setting": "[6]", "result": 3.19}
    ]},
    {"smiles": "Cc1ccc(-c2ccc(F)c(F)c2)cc1C1=C(O)C2(CCCC2)OC1=O", "note": "[Example I-2-a-3]", "values": [
      {"measurement": "logP", "setting": "[6]", "result": 3.25}
    ]},
    {"smiles": "Cc1ccc(-c2ccc(F)c(Cl)c2)cc1C1=C(O)C2(CCCC2)OC1=O", "note": "[Example I-2-a-4]", "values": [
      {"measurement": "logP", "setting": "[6]", "result": 3.50}
    ]},
    {"smiles": "O=C1OC2(CCCC2)C(O)=C1c1cc(-c2ccc(F)cc2F)ccc1Cl", "note": "[Example I-2-a-5]", "values": [
      {"measurement": "logP", "setting": "[6]", "result": 3.16}
    ]},
    {"smiles": "O=C1OC2(CCCC2)C(O)=C1c1cc(-c2cc(F)c(F)c(F)c2)ccc1Cl", "note": "[Example I-2-a-6]", "values": [
      {"measurement": "logP", "setting": "[6]", "result": 3.35},
      {"measurement": "efficacy (effect in %, caterpillars killed)", "setting": "[7]", "result": "≥ 80", "unit": "%"}
    ]},
    {"smiles": "O=C1OC2(CCCC2)C(O)=C1c1cc(-c2ccc(F)cc2)ccc1Cl", "note": "[Example I-2-a-7]", "values": [
      {"measurement": "logP", "setting": "[6]", "result": 3.09}
    ]}
  ]
}
